From PMC7046553, “Backbone Cyclization and Dimerization of LL-37-Derived Peptides Enhance Antimicrobial Activity and Proteolytic Stability” (Frontiers in Microbiology, 2020)
Where no end group is shown, it is not given here.

Tests used:
Escherichia coli = test system: Escherichia coli; set-up: method as in Wang, 2008; settings: ref Wang, 2008; cited from earlier work
[1] = test system: Pseudomonas aeruginosa ATCC 27853; set-up: method as in Gunasekera et al., 2018; settings: ref Gunasekera et al., 2018; cited from earlier work
[2] = test system: Candida albicans ATCC 90028; set-up: method as in Gunasekera et al., 2018; settings: ref Gunasekera et al., 2018; cited from earlier work
[3] = test system: human lymphoma cell line U-937 GTB; settings: cited from earlier work
[4] = Liposome leakage assay, fungal liposomes; set-up: species or system S. cerevisiae; settings: 50% leakage, 45 min incubation, 37°C; read-out: EC50 fung. (liposome leakage)
Method: FIGURE 3 Peptide induced liposome leakage. Bacterial liposomes based on E. coli polar lipid extract (A,B), and fungal liposomes of S. cerevisiae polar lipid extract and ergosterol (7:3) (C), were monitored for fluorescent marker leakage over 45 min of incubation with peptides. (A) Compares membrane disrupting efficacy at the 45 min mark for the parent peptide, monomer, lysine substitutions and dimerization, (B) effects of linker length, monomer directionality and backbone cyclization, (C) effect on KR-12 directionality and dimerization on a fungal liposome system. […] Results are means from triplicate experiments with standard deviations.
The liposome production and the liposome leakage assay were performed similar to what has previously been described ([Strömstedt et al., 2016]). […] Membrane permeability was measured by monitoring carboxyfluorescein efflux from the liposomes to the external low concentration environment, resulting in loss of self-quenching and an increased fluorescence signal. […] The effect of each peptide concentration on liposome integrity was monitored for 45 min, at which point the leakage had largely subsided. […] EC50-values are calculated from sigmoidal dose-response curves of leakage percentage as a function of the peptide concentration (log10).

[5] = test system: Staphylococcus aureus ATCC 29213; set-up: method as in Gunasekera et al., 2018; settings: ref Gunasekera et al., 2018; cited from earlier work
[6] = Liposome leakage assay, bacterial liposomes; set-up: species or system E. coli
Method: Membrane disruption was assayed by liposome leakage. […] E. coli and Saccharomyces cerevisiae membrane lipids were reconstituted into large unilamellar vesicles, trapping a self-quenching fluorescent marker.
Polar lipid extract from E. coli, and S. cerevisiae (Avanti Polar Lipids, Alabaster, AL-US) were used, the latter supplemented with ergosterol (Sigma-Aldrich) at a 7:3 molar ratio. In brief, dry lipid films were deposited on round-bottom flask walls and re-suspended in Tris buffer containing of 100 mM 5(6)-carboxyfluorescein. Multilamellar structures and polydispersity were reduced by repeated extrusion through 100-nm polycarbonate membranes. Un-trapped carboxyfluorescein was removed by gel separation. Membrane permeability was measured by monitoring carboxyfluorescein efflux from the liposomes to the external low concentration environment, resulting in loss of self-quenching and an increased fluorescence signal. The leakage experiments were performed on a 96-well plate format. […] EC50-values are calculated from sigmoidal dose-response curves of leakage percentage as a function of the peptide concentration (log10).

[7] = test system: Escherichia coli ATCC 25922; set-up: method as in Gunasekera et al., 2018; settings: ref Gunasekera et al., 2018; cited from earlier work
[8] = test system: Candida albicans ATCC 90028; settings: ATCC 90028, 5 h
Method: (§1) The three bacterial strains: Escherichia coli ATCC 25922, Pseudomonas aeruginosa ATCC 27853 Staphylococcus aureus ATCC 29213 as well as the fungal strain Candida albicans ATCC 90028 derived from clinical wound infections were obtained from the Department of Clinical Bacteriology at Lund University Hospital.
(§2) Antimicrobial activities of the peptides were evaluated using the two-step microdilution assay ([Strömstedt et al., 2017]), which is designed for testing AMPs without activity-inhibiting components. Briefly, the microbial suspension was washed twice with 10 mM Tris buffer (set to pH 7.4 at 37°C). 96-well plates (U-shaped, untreated polystyrene) were prepared with peptide 2-fold serial dilutions in Tris buffer. The culture density was quantified by OD600, diluted in Tris buffer and 50,000 cells aliquoted to each well in the 96-well plate to a final 100 μl volume. After 5 h of aerobic incubation at 37°C, 5 μl of 20% TSB medium was added to each well (resulting in 1% TSB) and the plates were re-incubated. Growth-inhibition was monitored when controls produced pellet sizes of 2 mm in diameter (close to growth saturation), which equates to 5, 8, 10, and 12 h for E. coli, S. aureus, P. aeruginosa, and C. albicans, respectively. […] The MIC-values in Table 1, are medians from triplicate experiments, while the data presented in the Figure 2 are the same values relative to that of KR-12.

[9] = test system: Escherichia coli ATCC 25922; settings: ATCC 25922, 5 h
Method: as §1, §2

Human type A RBCs = assay: Hemolysis assay; type: cell-based
Method: Peptides were dissolved in water and serially diluted in PBS to give 20 μl test solutions in a 96-well U-bottomed microtiter plate (Nunc). Human type A RBCs (red blood cells) were washed with PBS and centrifuged at 1500 g for 60 s in a microcentrifuge several times until a clear supernatant was obtained. A 0.25% suspension of washed RBCs in PBS (100 μl) was added to the peptide solutions. The plate was incubated at 37°C for 1 h and centrifuged at 150 g for 5 min. Aliquots of 100 μl were transferred to a 96-well flat-bottomed microtiter plate (Falcon) and the absorbance was measured at 405 nm with an automatic Multiskan Ascent plate reader (Labsystems). The amount of hemolysis was calculated as the percentage of maximum lysis (1% Triton X-100 control) after adjusting for minimum lysis (PBS control). Synthetic melittin (Sigma) was used for comparison. The hemolytic dose necessary to lyse 50% of the RBCs (HD50) was calculated using the regression constant from the linear portion of the hemolytic titration curve (GraphPad Prism software).

KRIVQRIKDFLR [KR-12]
MIC against Escherichia coli (Escherichia coli): 40 µM | MIC against Pseudomonas aeruginosa [1]: 10 µM | MIC against Candida albicans [2]: 10 µM | loss of cell viability ([3]; at the maximum concentration of 80 μM, ref Gunasekera et al., 2018): 13% | IC50 [3]: > 80 µM | EC50 [4]: 0.95 µM | MIC against Staphylococcus aureus [5]: 10 µM | EC50 ([6]; 50% leakage, 45 min incubation, 37°C, read-out: EC50 bact. (liposome leakage)): ~25 µM | fold higher concentration than LL-37 required to reach 50% leakage ([6]; E. coli liposomes): 38 fold | MIC against Escherichia coli [7]: 2.5 µM | MIC fung. [8]: 10 µM | MIC bact. [9]: 2.5 µM | HC50 (hemolysis) (Human type A RBCs): > 80 µM
